As usually defined, the IC50 is the concentration that inhibits the measured activity by half. Higher therefore signals weaker potency. As a reminder, the half-life is how long it takes for the measured level to halve. Broadly, the bioavailability is dose-corrected exposure relative to a reference, in per cent.

SMILES strings stand for the structures. Where only a bound is given, the exact number is not on record here.

Targets include Dipeptidyl peptidase 8 (Homo sapiens, UniProt Q6V1X1); Dipeptidyl peptidase 2 (Homo sapiens, UniProt Q9UHL4); Dipeptidyl peptidase 4 (Homo sapiens, UniProt P27487); Dipeptidyl peptidase 9 (Homo sapiens, UniProt Q86TI2).
For data set [1], the target named is Voltage-gated inwardly rectifying potassium channel KCNH2 (Homo sapiens, UniProt Q12809).
Sequence of Voltage-gated inwardly rectifying potassium channel KCNH2 (Q12809 whole entry): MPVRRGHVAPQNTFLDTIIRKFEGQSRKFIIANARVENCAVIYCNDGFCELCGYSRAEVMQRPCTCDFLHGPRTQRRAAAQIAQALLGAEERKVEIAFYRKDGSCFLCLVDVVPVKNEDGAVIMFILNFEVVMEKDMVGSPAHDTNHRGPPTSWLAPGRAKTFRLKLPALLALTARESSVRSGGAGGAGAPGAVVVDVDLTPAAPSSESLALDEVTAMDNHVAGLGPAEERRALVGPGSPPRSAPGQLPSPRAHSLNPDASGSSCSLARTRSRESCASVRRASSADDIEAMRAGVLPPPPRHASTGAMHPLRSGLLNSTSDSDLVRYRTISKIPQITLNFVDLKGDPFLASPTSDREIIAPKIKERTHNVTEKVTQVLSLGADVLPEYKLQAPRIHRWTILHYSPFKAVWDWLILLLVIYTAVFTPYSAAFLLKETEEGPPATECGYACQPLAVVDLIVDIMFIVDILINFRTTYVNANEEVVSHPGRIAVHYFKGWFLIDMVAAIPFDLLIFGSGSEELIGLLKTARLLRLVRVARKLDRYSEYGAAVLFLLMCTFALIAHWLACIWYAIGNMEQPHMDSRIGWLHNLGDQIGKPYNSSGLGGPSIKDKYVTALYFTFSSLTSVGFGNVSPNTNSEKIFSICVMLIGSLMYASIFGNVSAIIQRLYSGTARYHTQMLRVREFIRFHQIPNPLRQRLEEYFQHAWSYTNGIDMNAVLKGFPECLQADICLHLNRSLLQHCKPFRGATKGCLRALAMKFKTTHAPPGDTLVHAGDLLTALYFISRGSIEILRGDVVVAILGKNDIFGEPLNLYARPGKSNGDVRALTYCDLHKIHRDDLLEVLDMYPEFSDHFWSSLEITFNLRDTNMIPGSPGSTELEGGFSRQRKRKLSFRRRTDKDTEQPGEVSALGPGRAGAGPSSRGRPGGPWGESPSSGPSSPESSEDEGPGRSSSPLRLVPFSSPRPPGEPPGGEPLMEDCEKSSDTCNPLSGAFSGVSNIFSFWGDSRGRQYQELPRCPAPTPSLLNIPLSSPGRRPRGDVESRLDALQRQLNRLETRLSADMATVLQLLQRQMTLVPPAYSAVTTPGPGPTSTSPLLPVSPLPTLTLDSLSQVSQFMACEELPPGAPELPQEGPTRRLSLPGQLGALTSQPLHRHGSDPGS
Data set [2] can be described thus: Plasma half-life of compound was determined in rat. It is filed as ADME, cell-free.
Data set [3] can be described thus: Plasma cearance of compound was determined in rat. The conditions noted are these: read-out: Clp. Type of data set: ADME, organism-based.
The nature of data set [4]: Oral bioavailability in rat. It is filed as ADME, organism-based. The conditions noted are these: in vivo.

Sequence of Dipeptidyl peptidase 4 (P27487 whole entry): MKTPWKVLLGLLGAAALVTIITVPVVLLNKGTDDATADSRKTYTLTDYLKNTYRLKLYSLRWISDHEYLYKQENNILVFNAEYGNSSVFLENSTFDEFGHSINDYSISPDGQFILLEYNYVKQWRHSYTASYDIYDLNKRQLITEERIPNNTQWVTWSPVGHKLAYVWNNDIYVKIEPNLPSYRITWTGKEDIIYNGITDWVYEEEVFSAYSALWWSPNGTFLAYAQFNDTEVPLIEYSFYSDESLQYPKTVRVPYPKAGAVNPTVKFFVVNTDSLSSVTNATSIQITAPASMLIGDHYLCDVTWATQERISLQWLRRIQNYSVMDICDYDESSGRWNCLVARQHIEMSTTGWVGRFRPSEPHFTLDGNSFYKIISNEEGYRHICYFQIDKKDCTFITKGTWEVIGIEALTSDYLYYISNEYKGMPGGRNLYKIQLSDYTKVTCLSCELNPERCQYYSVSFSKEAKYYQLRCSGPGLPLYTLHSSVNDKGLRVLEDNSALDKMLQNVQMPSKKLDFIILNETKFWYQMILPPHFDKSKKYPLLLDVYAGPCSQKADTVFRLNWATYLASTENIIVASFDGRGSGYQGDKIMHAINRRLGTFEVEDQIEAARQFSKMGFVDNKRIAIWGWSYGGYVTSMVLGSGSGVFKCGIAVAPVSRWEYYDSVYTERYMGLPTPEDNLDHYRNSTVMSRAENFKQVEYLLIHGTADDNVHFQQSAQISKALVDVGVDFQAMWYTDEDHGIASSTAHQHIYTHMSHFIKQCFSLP
Sequence of Dipeptidyl peptidase 9 (Q86TI2 whole entry): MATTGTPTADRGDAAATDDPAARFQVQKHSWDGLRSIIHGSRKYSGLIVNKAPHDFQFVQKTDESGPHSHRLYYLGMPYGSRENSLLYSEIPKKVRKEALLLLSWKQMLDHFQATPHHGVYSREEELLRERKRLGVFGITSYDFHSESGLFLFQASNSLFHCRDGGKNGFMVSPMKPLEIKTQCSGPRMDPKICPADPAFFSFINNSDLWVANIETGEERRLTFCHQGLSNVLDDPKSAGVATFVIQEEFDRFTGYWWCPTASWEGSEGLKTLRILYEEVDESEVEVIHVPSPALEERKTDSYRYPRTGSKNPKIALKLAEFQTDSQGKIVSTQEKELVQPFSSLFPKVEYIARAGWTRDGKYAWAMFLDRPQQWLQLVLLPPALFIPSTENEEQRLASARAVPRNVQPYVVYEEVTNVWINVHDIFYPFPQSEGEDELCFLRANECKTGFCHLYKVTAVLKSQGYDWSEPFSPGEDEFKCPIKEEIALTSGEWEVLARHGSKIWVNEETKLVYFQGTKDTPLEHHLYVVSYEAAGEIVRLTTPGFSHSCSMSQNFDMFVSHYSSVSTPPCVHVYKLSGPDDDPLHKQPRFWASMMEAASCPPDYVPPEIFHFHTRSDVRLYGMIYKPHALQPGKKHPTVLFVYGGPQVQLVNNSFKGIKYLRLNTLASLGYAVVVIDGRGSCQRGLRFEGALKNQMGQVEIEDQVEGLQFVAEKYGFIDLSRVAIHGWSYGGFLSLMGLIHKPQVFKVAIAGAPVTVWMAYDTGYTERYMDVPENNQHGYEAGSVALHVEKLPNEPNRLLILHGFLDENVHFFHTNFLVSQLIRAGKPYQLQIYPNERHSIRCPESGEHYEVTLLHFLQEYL
Sequence of Dipeptidyl peptidase 8 (Q6V1X1 whole entry): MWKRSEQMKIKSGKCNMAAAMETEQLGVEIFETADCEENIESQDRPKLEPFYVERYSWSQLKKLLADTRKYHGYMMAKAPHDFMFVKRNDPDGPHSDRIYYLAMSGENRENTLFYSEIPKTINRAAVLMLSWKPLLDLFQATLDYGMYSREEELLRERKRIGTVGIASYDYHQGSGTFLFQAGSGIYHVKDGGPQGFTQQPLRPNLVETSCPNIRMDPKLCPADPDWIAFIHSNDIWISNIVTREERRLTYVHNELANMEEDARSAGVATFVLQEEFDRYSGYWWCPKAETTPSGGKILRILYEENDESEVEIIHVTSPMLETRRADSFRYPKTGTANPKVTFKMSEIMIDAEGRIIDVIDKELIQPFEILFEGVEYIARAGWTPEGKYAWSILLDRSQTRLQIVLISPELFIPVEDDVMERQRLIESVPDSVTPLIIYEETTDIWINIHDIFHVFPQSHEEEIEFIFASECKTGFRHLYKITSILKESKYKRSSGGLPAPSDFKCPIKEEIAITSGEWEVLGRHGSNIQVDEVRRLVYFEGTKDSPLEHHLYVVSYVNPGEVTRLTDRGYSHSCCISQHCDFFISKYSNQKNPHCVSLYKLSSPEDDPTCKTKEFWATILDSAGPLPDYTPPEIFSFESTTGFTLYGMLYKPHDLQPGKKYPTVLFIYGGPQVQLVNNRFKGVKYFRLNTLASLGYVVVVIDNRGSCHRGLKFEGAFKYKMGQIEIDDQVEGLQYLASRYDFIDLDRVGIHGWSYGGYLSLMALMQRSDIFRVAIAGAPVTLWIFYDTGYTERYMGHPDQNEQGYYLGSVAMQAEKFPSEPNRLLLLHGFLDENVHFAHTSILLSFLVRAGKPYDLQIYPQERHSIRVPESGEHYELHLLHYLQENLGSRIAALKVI

For `C[C@@H](c1ccc(-c2cccc(-c3noc(O)n3)c2)cc1)[C@H](N)C(=O)N1CC[C@H](F)C1.O=C(O)C(F)(F)F`, the IC50 was > 100 µM against Dipeptidyl peptidase 8; 28 µM in data set [1]; 1.1 µM against Dipeptidyl peptidase 2; 3 nM on Dipeptidyl peptidase 4; > 100 µM against Dipeptidyl peptidase 9. In data set [2], the half-life was 66 min. In addition, in data set [3], the clearance amounted to 23.9 mL/min/kg. The compound also came in with a bioavailability in data set [4] of 4.2%.
With `CCOC(=O)c1cccc(-c2ccc([C@H](C)[C@H](N)C(=O)N3CC[C@H](F)C3)cc2)c1`, the IC50 was > 100 µM against Dipeptidyl peptidase 8, 0.49 µM against Dipeptidyl peptidase 2, 75 nM against Dipeptidyl peptidase 4 and > 100 µM against Dipeptidyl peptidase 9.
With `C[C@@H](c1ccc(Cl)cc1F)[C@H](N)C(=O)N1CC[C@H](F)C1`, the IC50 was > 100 µM at Dipeptidyl peptidase 8, 5.6 µM against Dipeptidyl peptidase 2, 480 nM against Dipeptidyl peptidase 4 and > 100 µM against Dipeptidyl peptidase 9.
As to `COc1ccc([C@H](C)[C@H](N)C(=O)N2CC[C@H](F)C2)cc1`, the IC50 at Dipeptidyl peptidase 8 was > 100 µM; against Dipeptidyl peptidase 2, 14 µM; against Dipeptidyl peptidase 4, 770 nM; against Dipeptidyl peptidase 9 it was > 100 µM.
As to `C[C@@H](c1cccc(F)c1)[C@H](N)C(=O)N1CC[C@H](F)C1`, the IC50 against Dipeptidyl peptidase 8 is > 100 µM; on Dipeptidyl peptidase 2, 14 µM; against Dipeptidyl peptidase 4 it was 3700 nM; at Dipeptidyl peptidase 9, > 100 µM.
In the case of `C[C@@H](c1ccc(Cl)cc1)[C@H](N)C(=O)N1CC[C@H](F)C1`, the IC50 at Dipeptidyl peptidase 8 is > 100 µM; on Dipeptidyl peptidase 2, 5.9 µM; at Dipeptidyl peptidase 4, 170 nM; at Dipeptidyl peptidase 9 it was > 100 µM.
In the case of `C[C@@H](c1ccc(-c2ccccc2C(F)(F)F)cc1)[C@H](N)C(=O)N1CC[C@H](F)C1`, the IC50 at Dipeptidyl peptidase 8 is > 100 µM; at Dipeptidyl peptidase 2 it was 2.5 µM; at Dipeptidyl peptidase 4 it was 130 nM; against Dipeptidyl peptidase 9 it was > 100 µM.
For the compound `C[C@@H](c1ccc(-c2cccc(-c3nn[nH]n3)c2)cc1)[C@H](N)C(=O)N1CC[C@H](F)C1.O=C(O)C(F)(F)F`, the IC50 against Dipeptidyl peptidase 8 was > 100 µM; on Dipeptidyl peptidase 2, 2.9 µM; on Dipeptidyl peptidase 4, 6 nM. The same compound gave a half-life in data set [2] of 18 min. For the same compound, the clearance in data set [3] came out at 132 mL/min/kg. The same compound gave a bioavailability in data set [4] of 3.5%.
As to `C[C@@H](c1ccc(-c2ccc(F)cc2)cc1)[C@H](N)C(=O)N1CC[C@H](F)C1.O=C(O)C(F)(F)F`, in data set [2], the half-life is 132 min.
Take `C[C@@H](c1ccc(-c2ccncc2)cc1)[C@H](N)C(=O)N1CC[C@H](F)C1`: the half-inhibitory concentration (IC50) against Dipeptidyl peptidase 8 was > 100 µM; against Dipeptidyl peptidase 2, 3.1 µM; against Dipeptidyl peptidase 4, 110 nM; against Dipeptidyl peptidase 9, > 100 µM.
Turning to `C[C@@H](c1cccc(Cl)c1)[C@H](N)C(=O)N1CC[C@H](F)C1`, the IC50 against Dipeptidyl peptidase 8 was > 100 µM; against Dipeptidyl peptidase 2 it was 5.7 µM; on Dipeptidyl peptidase 4, 1100 nM; against Dipeptidyl peptidase 9 it was > 100 µM.
As for `C[C@@H](c1ccc(-c2cccc(C(=O)O)c2)cc1)[C@H](N)C(=O)N1CC[C@H](F)C1.O=C(O)C(F)(F)F`, the IC50 against Dipeptidyl peptidase 8 was > 100 µM; against Dipeptidyl peptidase 2, 9.2 µM; against Dipeptidyl peptidase 4, 56 nM; at Dipeptidyl peptidase 9, > 100 µM. In data set [2], this compound showed a half-life of 24 min. The clearance in data set [3] was 50.8 mL/min/kg. In data set [4], the bioavailability came out at 2.3%.
With `C[C@@H](c1ccc(-c2nccs2)cc1)[C@H](N)C(=O)N1CC[C@H](F)C1`, the IC50 is > 100 µM against Dipeptidyl peptidase 8, 0.72 µM on Dipeptidyl peptidase 2, 1500 nM against Dipeptidyl peptidase 4 and > 100 µM on Dipeptidyl peptidase 9.
Turning to `C[C@@H](c1ccc(C(F)(F)F)cc1)[C@H](N)C(=O)N1CC[C@H](F)C1`, the IC50 against Dipeptidyl peptidase 8 is > 100 µM; against Dipeptidyl peptidase 2 it was 5.2 µM; on Dipeptidyl peptidase 4, 600 nM; against Dipeptidyl peptidase 9 it was > 100 µM.
Regarding `C[C@@H](c1ccc(N2CCCCC2)cc1)[C@H](N)C(=O)N1CC[C@H](F)C1`, the IC50 was > 100 µM against Dipeptidyl peptidase 8, 28 µM against Dipeptidyl peptidase 2, 7900 nM at Dipeptidyl peptidase 4 and > 100 µM against Dipeptidyl peptidase 9.
On to `C[C@@H](c1ccc(-c2ccccn2)cc1)[C@H](N)C(=O)N1CC[C@H](F)C1`, for which the IC50 is > 100 µM against Dipeptidyl peptidase 8, 4.6 µM against Dipeptidyl peptidase 2, 240 nM on Dipeptidyl peptidase 4 and > 100 µM against Dipeptidyl peptidase 9.
Turning to `C[C@@H](c1ccc(-c2ccccc2Cl)cc1)[C@H](N)C(=O)N1CC[C@H](F)C1`, the IC50 at Dipeptidyl peptidase 8 was > 100 µM; against Dipeptidyl peptidase 2, 0.38 µM; on Dipeptidyl peptidase 4 it was 86 nM; on Dipeptidyl peptidase 9 it was > 100 µM.
For the compound `CCOC(=O)c1ccc(-c2ccc([C@H](C)[C@H](N)C(=O)N3CC[C@H](F)C3)cc2)cc1`, the IC50 on Dipeptidyl peptidase 8 is > 100 µM; against Dipeptidyl peptidase 2, 0.12 µM; against Dipeptidyl peptidase 4 it was 440 nM; at Dipeptidyl peptidase 9, > 100 µM.
On to `C[C@@H](c1ccc(Br)cc1)[C@H](N)C(=O)N1CC[C@H](F)C1`, for which the IC50 against Dipeptidyl peptidase 8 is > 100 µM; against Dipeptidyl peptidase 2, 3.6 µM; at Dipeptidyl peptidase 4, 250 nM; against Dipeptidyl peptidase 9, > 100 µM.
On to `C[C@@H](c1ccc(-c2cccc(-c3nnco3)c2)cc1)[C@H](N)C(=O)N1CC[C@H](F)C1`, for which the IC50 against Dipeptidyl peptidase 8 is > 100 µM; on Dipeptidyl peptidase 2, 0.96 µM; on Dipeptidyl peptidase 4, 69 nM; against Dipeptidyl peptidase 9, > 100 µM.
`C[C@@H](c1ccc(-c2ccc(C(=O)O)cc2)cc1)[C@H](N)C(=O)N1CC[C@H](F)C1`: the IC50 at Dipeptidyl peptidase 8 is > 100 µM; at Dipeptidyl peptidase 2, 8.6 µM; at Dipeptidyl peptidase 4, 370 nM; on Dipeptidyl peptidase 9, > 100 µM.
Regarding `C[C@@H](c1ccc(-c2ccc(F)cc2F)cc1)[C@H](N)C(=O)N1CC[C@H](F)C1`, the IC50 against Dipeptidyl peptidase 8 was > 100 µM; against Dipeptidyl peptidase 2, 2.5 µM; against Dipeptidyl peptidase 4 it was 37 nM; against Dipeptidyl peptidase 9, > 100 µM.
Regarding `C[C@@H](c1ccc(F)cc1C(F)(F)F)[C@H](N)C(=O)N1CC[C@H](F)C1`, the IC50 is > 100 µM against Dipeptidyl peptidase 8, > 100 µM on Dipeptidyl peptidase 2, 54000 nM against Dipeptidyl peptidase 4 and > 100 µM at Dipeptidyl peptidase 9.
